This passage reports IC50 results from US10300023B1, “Stabilized assembled nanostructures for delivery of encapsulated agents” (The Brigham and Women's Hospital, Inc., priority 2015, dated 2019).

In test [1] the test system is LNCaP androgen-sensitive human prostate adenocarcinoma cells. Briefly: In vitro cytotoxicity (% metabolic activity) in LNCaP cells. In kind it is cell-based. The settings on record: n = 3. As for the experimental part:
(§1) Nanofiber cytotoxicity was studied in vitro in prostate cancer cells—PC3 and LNCaP.
(§2) FIG. 8A is a line graph showing the % metabolic activity of PC3 (PC-3) human prostate cancer cells incubated with a range of concentrations (μM) of a vitamin C solution for 48 hours (“Vit C 48 h”, black square) or of stabilized vitamin C-derived particles for 24 hours or 48 hours (“Vit C particles 24 h” (grey square) and “Vit C particles 48 h” (triangle), respectively). FIG. 8B is a line graph showing the % metabolic activity of LNCaP androgen-sensitive human prostate adenocarcinoma cells incubated with Vit C for 48 hours (black squares), Vit C particles for 24 hours (grey squares), and Vit C particles for 48 hours (triangles).
(§3) FIGS. 9A and 9B are line graphs showing the % metabolic activity of PC3 cells (FIG. 9A) and the % metabolic activity of LNCaP cells (FIG. 9B) when incubated with a range of concentrations (μM) of stabilized vitamin C-derived particles (“Vit C particles”, grey squares), of free docetaxel (“free DTX”, diamonds), or of stabilized vitamin C-derived particles encapsulating docetaxel (“DTX loaded Vit C particles”, triangles).

The test system of test [2] is PC3 (PC-3) human prostate cancer cells. Briefly: In vitro cytotoxicity (% metabolic activity) in PC3 cells. Format: cell-based. The settings on record: n = 3. Here is the method: as §1, §2, §3

Usually IC50 stands for the point on the concentration scale where inhibition reaches its midpoint. A low value points to greater potency. For `CC(=O)O[C@@]12CO[C@@H]1C[C@H](O)[C@@]1(C)C(=O)[C@H](O)C3=C(C)[C@@H](OC(=O)[C@H](O)[C@@H](NC(=O)OC(C)(C)C)c4ccccc4)C[C@@](O)([C@@H](OC(=O)c4ccccc4)[C@H]21)C3(C)C` [Free DTX, docetaxel], the values for the IC50 in test [1] and in test [2] were 3600 nM and 620 nM, respectively.
